Results as given in patent US8012987B2, “Indolo[2,1-b] quinazole-6,12-dione antimalarial compounds and methods of treating malaria therewith” (The United States of America as represented by the …, priority 1998, dated 2011).
In brackets after ≈: the same amount, converted by molar mass. Like-named read-outs stand apart in the source and are kept apart here.

Experiments:
Format in all cases: cell-based
[1] = test system: Plasmodium falciparum clone CDC Sierra Leone I (D-6); assay: In vitro inhibition of [3H]hypoxanthine uptake, P. falciparum D-6 clone; details: Plasmodium falciparum, read-out: IC50 (D-6)
Procedure: (§1) The in vitro assays were conducted by using a modification of the semiautomated microdilution technique of Desjardins et al.^11 and Chulay et al.^12 Two strains of Plasmodium falciparum clones, from CDC Indochina III (W-2), CDC Sierra Leone I (D-6). […] These solutions were subsequently serially diluted 2-fold with a Biomek 1000® (Beckman, Fullerton, Calif.) over 11 different concentrations. The parasites were exposed to serial dilutions of each compound for 48 h and incubated at 37° C. with 5% O2, 5% CO2, and 90% N2 prior to the addition of [^3H]hypoxanthine. […] Uptake of [^3H]hypoxanthine was measured with a Packard Topcount scintillation counter. […] The values without parentheses indicate culture in blood serum which more closely resemble conditions in a living animal.
(§2) The numbers associated with both W2 and D6 refer to IC50 values and the units are ng/ml.

[2] = test system: Plasmodium falciparum clone Thai TM90C2B; assay: In vitro inhibition of [3H]hypoxanthine uptake, P. falciparum TM90C2B; details: Plasmodium falciparum, TM90C2B, values without parentheses: blood serum (footnote: blood plasma) replacing Albumax
Procedure: The in vitro assays were conducted by using a modification of the semiautomated microdilution technique of Desjardins et al.^11 and Chulay et al.^12 Two strains of Plasmodium falciparum clones, from CDC Indochina III (W-2), CDC Sierra Leone I (D-6). […] They were derived by direct visualization and micromanipulation from patient isolates.^13 Test compounds were initially dissolved in DMSO and diluted 400-fold in RPMI 1640 culture medium supplemented with 25 mM Hepes, 32 mM HaHCO3, and 10% Albumax I® (GIBCO BRL, Grand Island, N.Y.). These solutions were subsequently serially diluted 2-fold with a Biomek 1000® (Beckman, Fullerton, Calif.) over 11 different concentrations. The parasites were exposed to serial dilutions of each compound for 48 h and incubated at 37° C. with 5% O2, 5% CO2, and 90% N2 prior to the addition of [^3H]hypoxanthine. After a further incubation of 18 h, parasite DNA was harvested from each microtiter well using Packard Filtermate 196 Harvester® (Meriden, Conn.) onto glass filters. Uptake of [^3H]hypoxanthine was measured with a Packard Topcount scintillation counter. […] This procedure was repeated with the test compounds initially dissolved in DMSO and diluted 400-fold in RPMI 1640 culture medium supplemented with 25 mM Hepes, 32 mM HaHCO3, and with blood serum replacing the 10% Albumax I® (see Table 1, figures without parentheses). The values without parentheses indicate culture in blood serum which more closely resemble conditions in a living animal.
Four strains of Plasmodium falciparum clones, from CDC Indochina III (W-2), CDC Sierra Leone I (D-6), Thai WR75-TM9, and Thai TM90C2B were utilized in susceptibility testing and the IC50 results appear in Table 1.

[3] = test system: Plasmodium falciparum clone CDC Indochina III (W-2); assay: In vitro inhibition of [3H]hypoxanthine uptake, P. falciparum W-2 clone; details: Plasmodium falciparum, read-out: IC50 (W-2)
Procedure: as §1, §2

[4] = values in parentheses: culture medium with 10% Albumax I
[5] = values without parentheses: blood serum (footnote: blood plasma) replacing Albumax

IC50 [1, 4] | IC50 [3, 4] | Structure (SMILES) | further results
0.00437 µg/mL (≈ 0.0133 µM) | 0.00247 µg/mL (≈ 0.00753 µM) | O=C1c2cc(Br)ccc2-n2c1nc1cnccc1c2=O [Example 59] | IC50 [1, 5]: 0.0379 µg/mL (≈ 0.115 µM); IC50 [2]: 0.024 µg/mL (≈ 0.0732 µM); IC50 [3, 5]: 0.0177 µg/mL (≈ 0.054 µM)
0.11 µg/mL (≈ 0.303 µM) | 0.0739 µg/mL (≈ 0.203 µM) | CC1(C)COC(c2ccc3c(c2)C(=O)c2nc4ccncc4c(=O)n2-3)OC1 [Example 81] | –
0.0442 µg/mL (≈ 0.155 µM) | 0.0112 µg/mL (≈ 0.0392 µM) | O=C1c2cc(Cl)ccc2-n2c1nc1ncncc1c2=O [Example 50] | –
0.126 µg/mL (≈ 0.345 µM) | 0.082 µg/mL (≈ 0.225 µM) | CN1CCN(c2ccc3c(=O)n4c(nc3c2)C(=O)c2cc(F)ccc2-4)CC1 [Example 15] | –
2.16 µg/mL (≈ 6.24 µM) | 1.01 µg/mL (≈ 2.93 µM) | CN1CCN(c2ccc3c(c2)-n2c(nc4ccccc4c2=O)C3=O)CC1 [Example 16] | –
0.0102 µg/mL (≈ 0.0363 µM) | 0.00576 µg/mL (≈ 0.0206 µM) | Cc1cccc2c(=O)n3c(nc12)C(=O)c1cc(F)ccc1-3 [Example 14] | –
0.589 µg/mL (≈ 1.32 µM) | 0.609 µg/mL (≈ 1.37 µM) | CCOC(=O)c1ccc2c(c1)C(=O)c1nc3ccc(I)cc3c(=O)n1-2 [Example 26] | –
0.103 µg/mL (≈ 0.211 µM) | 0.134 µg/mL (≈ 0.273 µM) | CC1CN(c2cc3nc4n(c(=O)c3cc2F)-c2ccc(I)cc2C4=O)CCN1 (stereo not shown) [Example 35] | –
0.577 µg/mL (≈ 1.76 µM) | 0.513 µg/mL (≈ 1.57 µM) | O=C1c2ccccc2-n2c1nc1ccc(Br)cc1c2=O [Example 7] | –
0.49 µg/mL (≈ 1.24 µM) | 0.177 µg/mL (≈ 0.448 µM) | O=C(N/N=C\c1ccc2c(c1)C(=O)c1nc3ccncc3c(=O)n1-2)c1ccncc1 [Example 88] | –
0.136 µg/mL (≈ 0.358 µM) | 0.105 µg/mL (≈ 0.278 µM) | COCCOC(c1ccc2c(c1)C(=O)c1nc3ccncc3c(=O)n1-2)C(C)C (stereo not shown) [Example 85] | –
0.517 µg/mL (≈ 1.38 µM) | 0.449 µg/mL (≈ 1.2 µM) | CN1CCN(/N=C\c2ccc3c(c2)C(=O)c2nc4ccncc4c(=O)n2-3)CC1 [Example 66] | –
0.0313 µg/mL (≈ 0.107 µM) | 0.016 µg/mL (≈ 0.0546 µM) | COCc1ccc2c(c1)C(=O)c1nc3ccncc3c(=O)n1-2 [Example 62] | –
0.112 µg/mL (≈ 0.311 µM) | 0.0688 µg/mL (≈ 0.191 µM) | O=C1c2cc(/C=N/N3CCCCC3)ccc2-n2c1nc1ccncc1c2=O [Example 89] | –

More lines, now with the values behind:

Structure (SMILES) | IC50 [1, 4] | IC50 [3, 4] | further results
O=c1c2ccccc2nc2sc3ccccc3n12 [Example 2] | 12.5 µg/mL (≈ 49.5 µM) | 15.6 µg/mL (≈ 61.9 µM) | –
CN(CCOC(=O)CCC(=O)O)c1ccc2c(=O)n3c(nc2c1)C(=O)c1cc(Cl)ccc1-3 [Example 61] | 0.247 µg/mL (≈ 0.542 µM) | 0.187 µg/mL (≈ 0.41 µM) | –
O=c1c2ccccc2nc2/c(=C/C=C/c3ccccc3)c3ccccc3n12 [Example 67] | 4.44 µg/mL (≈ 12.7 µM) | 4.42 µg/mL (≈ 12.7 µM) | –
CCCCCCCCc1ccc2c(c1)C(=O)c1nc3cc(N(C)CCO)ccc3c(=O)n1-2 [Example 72] | 7.86 µg/mL (≈ 18.1 µM) | 7.46 µg/mL (≈ 17.2 µM) | –
Cc1ncc2c(=O)n3c(nc2n1)C(=O)c1ccccc1-3 [Example 56] | 0.216 µg/mL (≈ 0.817 µM) | 0.117 µg/mL (≈ 0.443 µM) | –
Cc1ncc2c(=O)n3c(nc2n1)C(=O)c1cc(I)ccc1-3 [Example 54] | 0.0746 µg/mL (≈ 0.191 µM) | 0.124 µg/mL (≈ 0.318 µM) | –
CC(C)(C)OC(=O)N1CCN(c2cc3nc4n(c(=O)c3cc2F)-c2ccc(I)cc2C4=O)CC1 [Example 31] | 0.161 µg/mL (≈ 0.279 µM) | 0.134 µg/mL (≈ 0.233 µM) | –
O=c1c2ccccc2nc2oc3ccccc3n12 [Example 3] | > 50 µg/mL | > 50 µg/mL | –
COc1cccc2c(=O)n3c(nc12)/c(=C/c1ccccc1)c1cc(F)ccc13 [Example 75] | 0.534 µg/mL (≈ 1.44 µM) | 0.573 µg/mL (≈ 1.55 µM) | –
CN(CCO)c1ccc2c(=O)n3c(nc2c1)C(=O)c1cc(OC(F)(F)F)ccc1-3 [Example 79] | 0.07 µg/mL (≈ 0.173 µM) | 0.0688 µg/mL (≈ 0.17 µM) | –
O=C1/C(=c2\c3ccccc3n3c(=O)c4ccccc4nc23)Nc2ccccc21 [Example 51] | – | – | IC50 [1]: 8.69 µg/mL (≈ 23.9 µM); IC50 [3]: 8.76 µg/mL (≈ 24.1 µM)
CN(CC(=O)O)c1ccc2c(=O)n3c(nc2c1)C(=O)c1cc(Cl)ccc1-3 [Example 60] | 0.0781 µg/mL (≈ 0.211 µM) | 0.0679 µg/mL (≈ 0.184 µM) | –
O=c1c2ccccc2nc2n1-c1ccccc1C21OCCO1 [Example 80] | 7.97 µg/mL (≈ 27.3 µM) | 6.9 µg/mL (≈ 23.6 µM) | –
Cc1ccc(S(=O)(=O)N/N=C2/c3ccccc3-n3c2nc2ccccc2c3=O)cc1 [Example 25] | 1.84 µg/mL (≈ 4.42 µM) | 1.99 µg/mL (≈ 4.78 µM) | –
CC1CN(c2cc3nc4n(c(=O)c3cc2F)-c2ccc(I)cc2C4=O)CCN1C(=O)OC(C)(C)C (stereo not shown) [Example 34] | 0.588 µg/mL (≈ 0.996 µM) | 0.601 µg/mL (≈ 1.02 µM) | –
